The values below come from patent publication US9181183B2, “Prostaglandin D synthase inhibitory piperidine compounds” (Taiho Pharmaceutical Co., Ltd., priority 2010, dated 2015).

In this assay the target is human H-PGDS (Homo sapiens, UniProt O60760). As to the kind of experiment: Hematopoietic prostaglandin D synthase (H-PGDS) inhibiting action, [14C]PGH2 to PGD2 conversion, TLC radioassay. Type of assay: biochemical. To be noted: compound 0.1 μM; inhibition rate relative to solvent control group; [14C] prostaglandin H2 10 μM, 25° C.; read-out: H-PGDS inh. (% at 0.1 μM). Here is the method:
The test was carried out according to the method of Urade, Y. et al. (J. Biol. Chem., 262, 3820-3825, (1987)). More specifically, a reaction mixture (49 μL) containing 100 mM Tris-HCl (pH 8.0), 1 mM reduced form glutathione, 0.1 mg/mL γ-globulin, human H-PGDS (q.s.), and a compound (0.1 μM) was preincubated at 25° C. for 5 minutes. A DMSO solution (final concentration: 1%) was added to the solvent control group. Subsequently, 1 μL of [^14C] prostaglandin H2 (final concentration: 10 μM) was added to start the reaction. One minute after the start of the reaction, 250 μL of a reaction stopper solution (diethylether/methanol/1M citric acid (30/4/1)) cooled with ice was added to stop the reaction. After the reaction was stopped, 50 μL of the upper layer portion (organic solvent phase) was applied to a TLC plate and developed at −20° C. for 45 minutes (developing solvent: diethylether/methanol/acetic acid (90/2/1)). After the TLC plate was dried and exposed to an imaging plate for 1 to 24 hours, the radioactivity corresponding to prostaglandin D2 (PGD2) was analyzed using an image analyzer (produced by Fujifilm Corporation). The area (%) occupied by the PGD2 band per lane and the inhibition rate (%) of each Example compound at 0.1 μM relative to the control group in each experiment were calculated.

human H-PGDS, sequence (O60760 whole entry): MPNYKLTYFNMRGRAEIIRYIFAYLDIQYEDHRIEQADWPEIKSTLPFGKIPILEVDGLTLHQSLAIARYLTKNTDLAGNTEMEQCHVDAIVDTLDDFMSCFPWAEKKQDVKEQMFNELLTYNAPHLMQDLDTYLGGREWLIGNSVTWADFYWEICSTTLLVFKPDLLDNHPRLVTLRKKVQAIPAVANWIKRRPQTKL

As for `O=C(O)c1ccc(-c2ncc(NC(=O)N3CCC(=Cc4ccccn4)CC3)cn2)cc1` [Example 33, 4-(5-(4-(pyridin-2-ylmethylene)piperidine-1-carboxamido)pyrimidin-2-yl)benzoic acid], the inhibition at 0.1 µM is 50%.

For `O=C(NC1CCN(c2ccc(CCn3ccnn3)cc2)CC1)N1CCC(=Cc2cc(F)ccc2F)CC1` [Example 34, N-(1-(4-(2-(1H-1,2,3-triazol-1-yl)ethyl)phenyl)piperidin-4-yl)-4-(2,5-difluorobenzylidene)piperidine-1-carboxamide], the inhibition at 0.1 µM came to 77.8%.

Regarding `O=C(NC1CCN(CC(F)(F)F)CC1)N1CCC(=Cc2cc(F)ccc2F)CC1` [Example 35, 4-(2,5-difluorobenzylidene)-N-(1-(2,2,2-trifluoroethyl)piperidin-4-yl)piperidine-1-carboxamide], the inhibition at 0.1 µM came to 77.2%.

`COc1ccc(CN2CCC(NC(=O)N3CCC(=Cc4cc(F)ccc4F)CC3)CC2)cc1Cl` [Example 36, N-(1-(3-chloro-4-methoxybenzyl)piperidin-4-yl)-4-(2,5-difluorobenzylidene)piperidine-1-carboxamide]: the inhibition at 0.1 µM stood at 58.3%.

`N#Cc1cccc(CN2CCC(NC(=O)N3CCC(=Cc4cc(F)ccc4F)CC3)CC2)c1` [Example 37, N-(1-(3-cyanobenzyl)piperidin-4-yl)-4-(2,5-difluorobenzylidene)piperidine-1-carboxamide]: the inhibition at 0.1 µM is 64.8%.

In the case of `O=C(NC1CCN(C(=O)C(F)(F)F)CC1)N1CCC(=Cc2cc(F)ccc2F)CC1` [Example 38, 4-(2,5-difluorobenzylidene)-N-(1-(2,2,2-trifluoroacetyl)piperidin-4-yl)piperidine-1-carboxamide], the inhibition at 0.1 µM was determined as 82.9%.

Turning to `CC(F)(F)C(=O)N1CCC(NC(=O)N2CCC(=Cc3cc(F)ccc3F)CC2)CC1` [Example 40, 4-(2,5-difluorobenzylidene)-N-(1-(2,2-difluoropropanoyl)piperidin-4-yl)piperidine-1-carboxamide], the inhibition at 0.1 µM came out at 71.4%.

For the compound `COC(=O)c1ccc(N2CCC(NC(=O)N3CCC(=Cc4cc(F)ccc4F)CC3)CC2)cc1` [Example 41, Methyl 4-(4-(4-(2,5-difluorobenzylidene)piperidine-1-carboxamido)piperidin-1-yl)benzoate], the inhibition at 0.1 µM turned out to be 59%.

For the compound `O=C(Nc1cnc2ccccc2c1)N1CCC(=Cc2cc(F)ccc2F)CC1` [Example 42, 4-(2,5-difluorobenzylidene)-N-(quinolin-3-yl)piperidine-1-carboxamide], the inhibition at 0.1 µM is 61.4%.

Regarding `O=C(NC1CCN(C(=O)C(F)F)CC1)N1CCC(=Cc2cc(F)ccc2F)CC1` [Example 43, N-(1-(2,2-difluoroacetyl)piperidin-4-yl)-4-(2,5-difluorobenzylidene)piperidine-1-carboxamide], the inhibition at 0.1 µM turned out to be 68%.

Turning to `O=C(NC1CCN(CC(F)F)CC1)N1CCC(=Cc2cc(F)ccc2F)CC1` [Example 44, 4-(2,5-difluorobenzylidene)-N-(1-(2,2-difluoroethyl)piperidin-4-yl)piperidine-1-carboxamide], the inhibition at 0.1 µM was found to be 81%.

For the compound `O=C(NC1CCN(C(=O)C2CC2)CC1)N1CCC(=Cc2cc(F)ccc2F)CC1` [Example 45, N-(1-(cyclopropanecarbonyl)piperidin-4-yl)-4-(2,5-difluorobenzylidene)piperidine-1-carboxamide], the inhibition at 0.1 µM came to 48.8%.

With `CC(C)(C)C(=O)N1CCC(NC(=O)N2CCC(=Cc3cc(F)ccc3F)CC2)CC1` [Example 46, 4-(2,5-difluorobenzylidene)-N-(1-pivaloylpiperidin-4-yl)piperidine-1-carboxamide], the inhibition at 0.1 µM worked out at 77.3%.

Consider `O=C(NC1CCN(C(=O)c2ccccc2)CC1)N1CCC(=Cc2cc(F)ccc2F)CC1` [Example 47, N-(1-benzoylpiperidin-4-yl)-4-(2,5-difluorobenzylidene)piperidine-1-carboxamide], for which the inhibition at 0.1 µM was determined as 62%.

For the compound `CC(C)C(=O)N1CCC(NC(=O)N2CCC(=Cc3cc(F)ccc3F)CC2)CC1` [Example 48, 4-(2,5-difluorobenzylidene)-N-(1-isobutyrylpiperidin-4-yl)piperidine-1-carboxamide], the inhibition at 0.1 µM turned out to be 65.7%.

Take `O=C(NC1CCN(C(=O)C2CCCCC2)CC1)N1CCC(=Cc2cc(F)ccc2F)CC1` [Example 49, N-(1-(cyclohexanecarbonyl)piperidin-4-yl)-4-(2,5-difluorobenzylidene)piperidine-1-carboxamide]: the inhibition at 0.1 µM came to 39.6%.

On to `O=C(NC1CCN(C(=O)C2CCC2)CC1)N1CCC(=Cc2cc(F)ccc2F)CC1` [Example 50, N-(1-(cyclobutanecarbonyl)piperidin-4-yl)-4-(2,5-difluorobenzylidene)piperidine-1-carboxamide], for which the inhibition at 0.1 µM turned out to be 59.9%.

Regarding `O=C(NC1CCN(C(=O)c2ccccn2)CC1)N1CCC(=Cc2cc(F)ccc2F)CC1` [Example 51, 4-(2,5-difluorobenzylidene)-N-(1-picolinoylpiperidin-4-yl)piperidine-1-carboxamide], the inhibition at 0.1 µM was found to be 50%.

Regarding `CN(C)C(=O)N1CCC(NC(=O)N2CCC(=Cc3cc(F)ccc3F)CC2)CC1` [Example 52, 4-(4-(2,5-difluorobenzylidene)piperidine-1-carboxamido)-N,N-dimethylpiperidine-1-carboxamide], the inhibition at 0.1 µM worked out at 74.6%.

As to `O=C(NC1CCN(C(=O)C2CCCC2)CC1)N1CCC(=Cc2cc(F)ccc2F)CC1` [Example 53, N-(1-(cyclopentanecarbonyl)piperidin-4-yl)-4-(2,5-difluorobenzylidene)piperidine-1-carboxamide], the inhibition at 0.1 µM came to 69%.

Turning to `O=C(NC1CCN(C(=O)c2cccs2)CC1)N1CCC(=Cc2cc(F)ccc2F)CC1` [Example 54, 4-(2,5-difluorobenzylidene)-N-(1-(thiophene-2-carbonyl)piperidin-4-yl)piperidine-1-carboxamide], the inhibition at 0.1 µM is 85.9%.

On to `Cn1cccc1C(=O)N1CCC(NC(=O)N2CCC(=Cc3cc(F)ccc3F)CC2)CC1` [Example 55, 4-(2,5-difluorobenzylidene)-N-(1-(1-methyl-1H-pyrrole-2-carbonyl)piperidin-4-yl)piperidine-1-carboxamide], for which the inhibition at 0.1 µM was 70.9%.

As to `O=C(Nc1ccccc1)N1CCC(NC(=O)N2CCC(=Cc3cc(F)ccc3F)CC2)CC1` [Example 56, 4-(2,5-difluorobenzylidene)-N-(1-(phenylcarbamoyl)piperidin-4-yl)piperidine-1-carboxamide], the inhibition at 0.1 µM was 59.3%.

As to `O=C(NC1CCN(C(=O)N2CCCCC2)CC1)N1CCC(=Cc2cc(F)ccc2F)CC1` [Example 57, 4-(2,5-difluorobenzylidene)-N-(1-(piperidine-1-carbonyl)piperidin-4-yl)piperidine-1-carboxamide], the inhibition at 0.1 µM was 62.3%.

In the case of `O=C(Nc1ncc(C(=O)N2CCOCC2)s1)N1CCC(=Cc2cc(F)ccc2F)CC1` [Example 58, 4-(2,5-difluorobenzylidene)-N-(5-(morpholine-4-carbonyl)thiazol-2-yl)piperidine-1-carboxamide], the inhibition at 0.1 µM came out at 80.8%.

As to `O=C(NC1CCN(C(=O)c2cscn2)CC1)N1CCC(=Cc2cc(F)ccc2F)CC1` [Example 59, 4-(2,5-difluorobenzylidene)-N-(1-(thiazole-4-carbonyl)piperidin-4-yl)piperidine-1-carboxamide], the inhibition at 0.1 µM was 76.8%.

In the case of `O=C(NC1CCN(C(=O)c2ccccc2F)CC1)N1CCC(=Cc2cc(F)ccc2F)CC1` [Example 60, 4-(2,5-difluorobenzylidene)-N-(1-(2-fluorobenzoyl)piperidin-4-yl)piperidine-1-carboxamide], the inhibition at 0.1 µM came to 67.1%.

As for `O=C(NC1CCN(C(=O)c2cccc(F)c2)CC1)N1CCC(=Cc2cc(F)ccc2F)CC1` [Example 61, 4-(2,5-difluorobenzylidene)-N-(1-(3-fluorobenzoyl)piperidin-4-yl)piperidine-1-carboxamide], the inhibition at 0.1 µM came to 67.7%.

With `Cc1cccnc1C(=O)N1CCC(NC(=O)N2CCC(=Cc3cc(F)ccc3F)CC2)CC1` [Example 62, 4-(2,5-difluorobenzylidene)-N-(1-(3-methylpicolinoyl)piperidin-4-yl)piperidine-1-carboxamide], the inhibition at 0.1 µM turned out to be 54.2%.

In the case of `Cc1ccnc(C(=O)N2CCC(NC(=O)N3CCC(=Cc4cc(F)ccc4F)CC3)CC2)c1` [Example 63, 4-(2,5-difluorobenzylidene)-N-(1-(4-methylpicolinoyl)piperidin-4-yl)piperidine-1-carboxamide], the inhibition at 0.1 µM came to 64.7%.

With `O=C(Nc1ccccn1)N1CCC(NC(=O)N2CCC(=Cc3cc(F)ccc3F)CC2)CC1` [Example 64, 4-(2,5-difluorobenzylidene)-N-(1-(pyridin-2-ylcarbamoyl)piperidin-4-yl)piperidine-1-carboxamide], the inhibition at 0.1 µM stood at 51%.

Regarding `O=C(Nc1nccs1)N1CCC(NC(=O)N2CCC(=Cc3cc(F)ccc3F)CC2)CC1` [Example 65, 4-(2,5-difluorobenzylidene)-N-(1-(thiazol-2-ylcarbamoyl)piperidin-4-yl)piperidine-1-carboxamide], the inhibition at 0.1 µM is 55.4%.
